Broadly, the MIC is the least concentration at which growth counts as inhibited. The IC50 is the concentration that gives 50% inhibition.

≈ marks a conversion by molar mass, not a printed value. Some results are limits rather than exact numbers.

Series [1] deals with Pseudomonas aeruginosa. Briefly: Antibacterial activity against Pseudomonas aeruginosa ATCC 27853 assessed as inhibition of bacterial growth at 10 hrs by plate reader analysis. In kind it is functional.
Series [2] has as its system Escherichia coli. Briefly: Antibacterial activity against Escherichia coli L4242 harboring delta tolC mutant assessed as inhibition of bacterial growth at 10 hrs by plate reader analysis. The series is classed as functional.
The subject of series [3] is Micrococcus luteus. The experiment in a line: Antibacterial activity against Micrococcus luteus L108 assessed as inhibition of bacterial growth at 10 hrs by plate reader analysis. In kind it is functional.
A short description of series [4]: Cytotoxicity against human Caco-2 cells assessed as reduction in cell viability incubated for 24 hrs by alamar blue assay. In kind it is toxicity, cell-based. (Alamar Blue is a resazurin reagent that responds to reducing activity.)
Series [5] concerns Streptococcus pneumoniae. The experiment in a line: Antibacterial activity against Streptococcus pneumoniae L44 assessed as inhibition of bacterial growth at 10 hrs by plate reader analysis. In kind it is functional.
Series [6] deals with Enterococcus faecium. Briefly: Antibacterial activity against Enterococcus faecium L568 assessed as inhibition of bacterial growth at 10 hrs by plate reader analysis. In kind it is functional.
Series [7] can be described thus: Cytotoxicity against HEK293 cells assessed as reduction in cell viability incubated for 24 hrs by alamar blue assay. As to conditions: human. In kind it is toxicity, cell-based.
Series [8] concerns Staphylococcus aureus. Briefly: Antibacterial activity against Staphylococcus aureus L100 assessed as inhibition of bacterial growth at 10 hrs by plate reader analysis. The series is classed as functional.

For `COC(=O)c1cccc2nc3c([C@@H](SC[C@H](NC(C)=O)C(=O)O)[C@@H](CCCCC(C)C)C(=O)OC)cccc3nc12`, the MIC came to 428 µM (≈ 250 µg/mL) in series [1]; 291 µM (≈ 170 µg/mL) in series [2]; 68 µM (≈ 39.7 µg/mL) in series [3]; 12 µM (≈ 7 µg/mL) in series [5]; 428 µM (≈ 250 µg/mL) in series [6]; 43 µM (≈ 25.1 µg/mL) in series [8]. Besides, the concentration for half-maximal inhibition (IC50) at 24 h in series [4] was 154 µM; in series [7] it was more than 220 µM.

These data come from ChEMBL document CHEMBL5137010, “N-Acetyl-Cysteinylated Streptophenazines from Streptomyces” (J Nat Prod, 2022).
